The text below walks through data of patent US20250011299A1, “PYRIDAZINYL AMINO DERIVATIVES AS ALK5 INHIBITORS” (CHIESI FARMACEUTICI S.P.A., priority 2021, published 2025).

The test concerns the target T1, human ALK5 (Homo sapiens, UniProt P36897).
T1 construct: human ALK5 (recombinant TGF β1 N-term GST-tagged, 80-end); GST (N); purchased
T1 sequence (P36897 80-503 limits assumed): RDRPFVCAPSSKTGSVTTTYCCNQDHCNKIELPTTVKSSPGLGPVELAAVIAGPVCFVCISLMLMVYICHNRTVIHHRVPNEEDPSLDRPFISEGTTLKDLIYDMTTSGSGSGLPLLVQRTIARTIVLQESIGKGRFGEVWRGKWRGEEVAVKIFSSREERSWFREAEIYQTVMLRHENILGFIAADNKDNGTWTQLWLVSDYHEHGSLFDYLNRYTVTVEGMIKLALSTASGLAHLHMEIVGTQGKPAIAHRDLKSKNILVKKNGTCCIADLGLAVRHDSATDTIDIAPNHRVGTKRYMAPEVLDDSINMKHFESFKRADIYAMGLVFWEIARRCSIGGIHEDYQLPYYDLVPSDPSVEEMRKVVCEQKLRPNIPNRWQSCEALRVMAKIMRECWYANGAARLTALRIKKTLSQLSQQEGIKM
Put plainly: ADP-GLO Kinases assay of ALK5 enzymatic activity. The conditions noted are these: purified recombinant human ALK5, TGFβ1 peptide substrate, pIC50 converted to pKi by Cheng-Prusoff, high ATP protocol (15 μM) for very potent compounds, 25° C. It is filed as biochemical. The method, then:
The enzymatic activity of compounds of the present invention was monitored measuring the formation of ADP using the ADP-GLO Kinases assay. Following the incubation of the purified enzyme, a substrate and ATP, the produced ADP was converted into ATP, which in turn was converted into light by Ultra-Glo Luciferase. The luminescent signal positively correlated with ADP amount and kinase activity. […] Compound and ALK5 kinase were mixed and incubated for 15 mins. […] After an incubation of 120 min, the reaction was stopped, and ADP production detected with ADP-Glo kit according to manufacturer's indications. […] After an incubation of 60 min, the kinase reaction was stopped, and ADP production detected with ADP-Glo kit according to manufacturer's indications. All reaction and incubation steps were performed at 25° C. and the assays were performed in 384-well format and validated using a selection of reference compounds tested in 11-point concentration-response curve. […] Results were expressed as pIC50 (negative logarithm of IC50) and subsequently converted to pKi (negative logarithm of […]) using the Cheng-Prusoff equation. The higher the value of pKi, the greater the inhibition of ALK5 activity.

By Ki is commonly meant the equilibrium dissociation constant of an inhibitor or competing ligand from its target. In the case of `CN1CCN(CCC(=O)Nc2cc(Nc3cc(-c4cc(Cl)ccc4F)nnc3N(C)Cc3cccc(O)c3)ccn2)CC1` [Example 102, N-(4-{[6-(5-chloro-2-fluorophenyl)-3-{[(3-hydroxyphenyl)methyl](methyl)amino}pyridazin-4-yl]amino}pyridin-2-yl)-3-(4-methylpiperazin-1-yl)propanamide], the inhibitory constant (Ki) was 126 to 316 pM.

As to `CN1CCN(CCOc2ccc3c(Nc4cc(-c5cc(Cl)ccc5F)nnc4OCCNS(C)(=O)=O)ccnc3c2)CC1` [Example 6, N-(2-{[6-(5-chloro-2-fluorophenyl)-4-({7-[2-(4-methylpiperazin-1-yl)ethoxy]quinolin-4-yl}amino)pyridazin-3-yl]oxy}ethyl)methanesulfonamide], the Ki is not above 100 pM.

For `COC(=O)C1CN(c2nnc(-c3cc(Cl)ccc3F)cc2Nc2ccnc(NC(=O)CCN3CCN(C)CC3)c2)C1` [Example 98, methyl 1-[6-(5-chloro-2-fluorophenyl)-4-({2-[3-(4-methylpiperazin-1-yl)propanamido]pyridin-4-yl}amino)pyridazin-3-yl]azetidine-3-carboxylate], the inhibitory constant (Ki) was 126 to 316 pM.

For the compound `CN1CCN(CCC(=O)Nc2cc(Nc3cc(-c4cc(Cl)ccc4F)nnc3SCC(O)CO)ccn2)CC1` (stereo not shown) [Example 86, N-(4-{[6-(5-chloro-2-fluorophenyl)-3-[(2,3-dihydroxypropyl)sulfanyl]pyridazin-4-yl]amino}pyridin-2-yl)-3-(4-methylpiperazin-1-yl)propanamide], the Ki was not above 100 pM.

For `COCCOc1nnc(-c2cc(Cl)ccc2F)cc1Nc1ccnc(NC(=O)CCN2CCOCC2)c1` [Example 34, N-(4-{[6-(5-chloro-2-fluorophenyl)-3-(2-methoxyethoxy)pyridazin-4-yl]amino}pyridin-2-yl)-3-(morpholin-4-yl)propanamide], the Ki was not above 100 pM.

Take `CN1CCN([C@@H]2CC[C@@H](C(=O)Nc3cc(Nc4cc(-c5cc(Cl)ccc5F)nnc4SCCO)ccn3)C2)CC1` (single isomer, unassigned; enantiomer 1) [Example 189, Trans Enantiomer 1 N-(4-{[6-(5-chloro-2-fluorophenyl)-3-[(2-hydroxyethyl)sulfanyl]pyridazin-4-yl]amino}pyridin-2-yl)-3-(4-methylpiperazin-1-yl)cyclopentane-1-carboxamide]: the Ki was not above 100 pM.

On to `C[C@@H]1CN(CCC(=O)Nc2cc(Nc3cc(-c4cc(Cl)ccc4F)nnc3SCC[Si](C)(C)C)ncn2)C[C@H](C)N1` [Example 195, N-(6-{[6-(5-chloro-2-fluorophenyl)-3-{[2-(trimethylsilyl)ethyl]sulfanyl}pyridazin-4-yl]amino}pyrimidin-4-yl)-3-(3,5-dimethylpiperazin-1-yl)propanamide], for which the Ki was 126 to 316 pM.

Take `C[C@@H]1CN([C@H]2C[C@@H](C(=O)Nc3cc(Nc4cc(-c5cc(Cl)ccc5F)nnc4N(C)CC4(C)CCOC4=O)ncn3)C2)C[C@H](C)N1` (single isomer, unassigned) [Example 186, N-(6-{[6-(5-chloro-2-fluorophenyl)-3-{methyl[(3-methyl-2-oxooxolan-3-yl)methyl]amino}pyridazin-4-yl]amino}pyrimidin-4-yl)-3-(3,5-dimethylpiperazin-1-yl)cyclobutane-1-carboxamide]: the inhibitory constant (Ki) was not above 100 pM.

With `CN1CCN(CCC(=O)Nc2cc(Nc3cc(-c4cc(Cl)ccc4F)nnc3[S+](C)[O-])ccn2)CC1` (stereo not shown) [Example 17, N-(4-{[6-(5-chloro-2-fluorophenyl)-3-methanesulfinylpyridazin-4-yl]amino}pyridin-2-yl)-3-(4-methylpiperazin-1-yl)propanamide], the Ki was 126 to 316 pM.

In the case of `COCCOc1nnc(-c2cc(Cl)ccc2F)cc1Nc1ccnc(N)c1` [Example 69, N4-[6-(5-chloro-2-fluorophenyl)-3-(2-methoxyethoxy)pyridazin-4-yl]pyridine-2,4-diamine], the inhibitory constant (Ki) was 398 to 3160 pM.

For `CN1CCN(CCC(=O)Nc2cc(Nc3cc(-c4cc(Cl)ccc4F)nnc3OCC3COC(=O)O3)ccn2)CC1` (stereo not shown) [Example 79, N-(4-{[6-(5-chloro-2-fluorophenyl)-3-[(2-oxo-1,3-dioxolan-4-yl)methoxy]pyridazin-4-yl]amino}pyridin-2-yl)-3-(4-methylpiperazin-1-yl)propanamide], the inhibitory constant (Ki) was not above 100 pM.

For `COC(=O)c1cc2c(Nc3cc(-c4cc(Cl)ccc4F)nnc3OCCCN(C)C)ccnc2[nH]1` [Example 10, methyl 4-{[6-(5-chloro-2-fluorophenyl)-3-[3-(dimethylamino)propoxy]pyridazin-4-yl]amino}-1H-pyrrolo[2,3-b]pyridine-2-carboxylate], the Ki was 398 to 3160 pM.

On to `CN1CCC2(CCN(C(=O)Nc3cc(Nc4cc(-c5cc(Cl)ccc5F)nnc4SCCO)ccn3)CC2)C1` [Example 26, N-(4-{[6-(5-chloro-2-fluorophenyl)-3-[(2-hydroxyethyl)sulfanyl]pyridazin-4-yl]amino}pyridin-2-yl)-2-methyl-2,8-diazaspiro[4.5]decane-8-carboxamide], for which the inhibition constant Ki was not above 100 pM.

`CN1CCN([C@H]2C[C@@H](C(=O)Nc3cc(Nc4cc(-c5cc(Cl)ccc5F)nnc4OC4CCOC4)ccn3)C2)CC1` (single isomer, unassigned) [Example 113, N-(4-{[6-(5-chloro-2-fluorophenyl)-3-(oxolan-3-yloxy)pyridazin-4-yl]amino}pyridin-2-yl)-3-(4-methylpiperazin-1-yl)cyclobutane-1-carboxamide]: the Ki was 126 to 316 pM.

Regarding `O=C(O)C1CCN([C@H]2C[C@@H](C(=O)Nc3cc(Nc4cc(-c5cc(Cl)ccc5F)nnc4SCCO)ccn3)C2)CC1` [Example 167, Cis 1-{3-[(4-{[6-(5-chloro-2-fluorophenyl)-3-[(2-hydroxyethyl)sulfanyl]pyridazin-4-yl]amino}pyridin-2-yl)carbamoyl]cyclobutyl}piperidine-4-carboxylic acid], the inhibitory constant (Ki) was 126 to 316 pM.

As to `O=C(CCN1CCNCC1)Nc1cc(Nc2cc(-c3cc(Cl)ccc3F)nnc2SCCO)ccn1` [Example 153, N-(4-{[6-(5-chloro-2-fluorophenyl)-3-[(2-hydroxyethyl)sulfanyl]pyridazin-4-yl]amino}pyridin-2-yl)-3-(piperazin-1-yl)propanamide], the Ki was not above 100 pM.

Consider `CN1CC2(C1)CN(CC(=O)Nc1cc(Nc3cc(-c4cc(Cl)ccc4F)nnc3SCCO)ccn1)C2` [Example 24, N-(4-{[6-(5-chloro-2-fluorophenyl)-3-[(2-hydroxyethyl)sulfanyl]pyridazin-4-yl]amino}pyridin-2-yl)-2-{6-methyl-2,6-diazaspiro[3.3]heptan-2-yl}acetamide], for which the inhibition constant Ki is not above 100 pM.

For the compound `COc1nnc(-c2cc(Cl)ccc2F)cc1Nc1ccnc2cc(OCCN3CCN(C)CC3)ccc12` [Example 46, N-[6-(5-chloro-2-fluorophenyl)-3-methoxypyridazin-4-yl]-7-[2-(4-methylpiperazin-1-yl)ethoxy]quinolin-4-amine], the Ki is not above 100 pM.

Turning to `CN1CCN(CCC(=O)Nc2cc(Nc3cc(-c4cc(Cl)ccc4F)nnc3SC[C@H]3C[C@@H](O)C3)ccn2)CC1` [Example 154, N-(4-{[6-(5-chloro-2-fluorophenyl)-3-{[(3-hydroxycyclobutyl)methyl]sulfanyl}pyridazin-4-yl]amino}pyridin-2-yl)-3-(4-methylpiperazin-1-yl)propanamide], the inhibition constant Ki was not above 100 pM.

As to `CN1CCN(CCOc2ccc3c(Nc4cc(-c5cc(Cl)ccc5F)nnc4OCC(F)F)ccnc3c2)CC1` [Example 3, N-[6-(5-chloro-2-fluorophenyl)-3-(2,2-difluoroethoxy)pyridazin-4-yl]-7-[2-(4-methylpiperazin-1-yl)ethoxy]quinolin-4-amine], the Ki was not above 100 pM.

Turning to `COC(=O)C12CC(COc3nnc(-c4cc(Cl)ccc4F)cc3Nc3ccnc(NC(=O)CCN4CCN(C)CC4)c3)(C1)C2` [Example 125, methyl 3-({[6-(5-chloro-2-fluorophenyl)-4-({2-[3-(4-methylpiperazin-1-yl)propanamido]pyridin-4-yl}amino)pyridazin-3-yl]oxy}methyl)bicyclo[1.1.1]pentane-1-carboxylate], the inhibitory constant (Ki) is 126 to 316 pM.

Turning to `CN1CCN(CCC(=O)Nc2cc(Nc3cc(-c4cc(Cl)ccc4F)nnc3N(C)CC3(C)CCOC3=O)ccn2)CC1` (single isomer, unassigned) [Example 128, N-(4-{[6-(5-chloro-2-fluorophenyl)-3-{methyl[(3-methyl-2-oxooxolan-3-yl)methyl]amino}pyridazin-4-yl]amino}pyridin-2-yl)-3-(4-methylpiperazin-1-yl)propanamide], the inhibition constant Ki is not above 100 pM.
